Where a name gives a salt, the structure may show the parent alone. Read-outs that look alike come from different tables or passages of the source.
Tested on: LMP1 expression in Kem I cells
Experiment: microbe, parasite or virus in culture
Format: cell-based, EBV
Conditions: for fold induction at 2.5 µM: human gammaherpesvirus 4, 48 h
[1] = read-out: Average LMP1 Fold Increase, Kem I cells, 2.5 uM, 48 hours, average of replicates 1 and 2
[2] = read-out: Replicate 1-LMP1 Fold Increase, Kem I cells, 2.5 uM, 48 hours, fold change in LMP1 transcript vs vehicle
[3] = read-out: Replicate 2-LMP1 Fold Increase, Kem I cells, 2.5 uM, 48 hours, fold change in LMP1 transcript vs vehicle
[4] = Kem I cells, 2.5 uM, 48 hours, average of replicates 1 and 2
[5] = Kem I cells, 2.5 uM, 48 hours, fold change in LMP1 transcript vs vehicle
[6] = read-out: Average LMP1 Fold Increase, Kem I cells, dose 2.5 uM, 48 hours, LMP1 transcript by in-well qRT-PCR, average of the two replicates
[7] = read-out: Replicate 1-LMP1 Fold Increase, Kem I cells, dose 2.5 uM, 48 hours, LMP1 transcript by in-well qRT-PCR, screen replicate 1
[8] = read-out: Replicate 2-LMP1 Fold Increase, Kem I cells, dose 2.5 uM, 48 hours, LMP1 transcript by in-well qRT-PCR, screen replicate 2
[9] = Kem I cells, dose 2.5 uM, 48 hours, LMP1 transcript by in-well qRT-PCR, average of the two replicates
[10] = Kem I cells, dose 2.5 uM, 48 hours, LMP1 transcript by in-well qRT-PCR, screen replicate 1
[11] = Kem I cells, dose 2.5 uM, 48 hours, LMP1 transcript by in-well qRT-PCR, screen replicate 2

SMILES | Average LMP1 Fold Increase [4] | Replicate 1-LMP1 Fold Increase [5] | Replicate 2-LMP1 Fold Increase [5] | also measured
Cc1ccc(-c2cc(C(F)(F)F)nn2-c2ccc(S(N)(=O)=O)cc2)cc1 [Celecoxib] | – | – | – | fold induction at 2.5 µM [1]: 0.62; fold induction at 2.5 µM [2]: 0.63; fold induction at 2.5 µM [3]: 0.62
O=C(NCCN1CCOCC1)c1ccc(Cl)cc1 [Moclobemide (Ro 111163)] | 0.55 | 0.28 | 0.81 | –
CCO.N#CC(=C(/N)Sc1ccccc1N)/C(C#N)=C(\N)Sc1ccccc1N [U0126-EtOH] | – | – | – | Average LMP1 Fold Increase: 0.58 fold; Replicate 1-LMP1 Fold Increase: 0.51 fold; Replicate 2-LMP1 Fold Increase: 0.65 fold
O=C1NC(=O)C(c2ccccc2[N+](=O)[O-])=C1Nc1ccc(O)c(Cl)c1 [SB415286] | 0.71 | 0.59 | 0.84 | –
NC(=O)c1cccc(-c2cccc(OC(=O)NC3CCCCC3)c2)c1 [URB597] | – | – | – | fold induction at 2.5 µM [6]: 0.54; fold induction at 2.5 µM [7]: 0.52; fold induction at 2.5 µM [8]: 0.55
Cn1cc(/C=C2\C(=O)Nc3cccnc32)c2ccccc21 [GW441756] | 0.80 | 0.70 | 0.89 | –
COc1cccc2c1C(=O)c1c(O)c3c(c(O)c1C2=O)C[C@@](O)(C(C)=O)C[C@@H]3O[C@H]1C[C@H](N)[C@H](O)[C@H](C)O1 [Daunorubicin HCl] | – | – | – | fold induction at 2.5 µM [1]: 242; fold induction at 2.5 µM [2]: 221; fold induction at 2.5 µM [3]: 262
Cc1ccc(NC(=O)c2ccc(CN3CCN(C)CC3)cc2)cc1Nc1nccc(-c2cccnc2)n1 [Imatinib (STI571)] | 0.42 | 0.60 | 0.25 | –
Cc1noc(-c2ccc(CSCCC(=O)O)cc2)c1NC(=O)OC(C)c1ccccc1Cl (stereo not drawn) [Ki16425] | 0.62 | 0.80 | 0.45 | –
COc1cc(CCc2cc(NC(=O)c3ccc(N4CC(C)NC(C)C4)cc3)n[nH]2)cc(OC)c1 (stereo not drawn) [AZD4547] | 0.13 | 0.11 | 0.15 | –
O=C(Nc1cccc(Nc2ncc(Br)c(NCCc3cnc[nH]3)n2)c1)N1CCCC1 [BX-912] | 0.37 | 0.40 | 0.35 | –
COc1ccccc1N1CCN(CC(O)COc2cccc3ccccc23)CC1 (stereo not drawn) [Naftopidil] | – | – | – | fold induction at 2.5 µM [1]: 1.15; fold induction at 2.5 µM [2]: 1.36; fold induction at 2.5 µM [3]: 0.95
COc1ccc(C[C@@H](C)NC[C@H](O)c2ccc(O)c(NC=O)c2)cc1.COc1ccc(C[C@@H](C)NC[C@H](O)c2ccc(O)c(NC=O)c2)cc1.O=C(O)/C=C/C(=O)O [Formoterol Hemifumarate] | 1.83 | 1.71 | 1.96 | –
COc1ccnc2[nH]cc(C(=O)C(=O)N3CCN(C(=O)c4ccccc4)C[C@H]3C)c12 [BMS-378806] | 0.64 | 0.75 | 0.53 | –
C=CC(=O)Nc1cccc(Nc2nc(Nc3ccc(Oc4ccnc(C(=O)NC)c4)cc3)ncc2F)c1 [CNX-774] | 0.62 | 0.51 | 0.73 | –
COc1cc(Nc2ncc(F)c(Nc3ccc4c(n3)N(COP(=O)(O)O)C(=O)C(C)(C)O4)n2)cc(OC)c1OC [Fostamatinib (R788)] | 0.67 | 0.24 | 1.11 | –
Nc1cccc2c1CN(C1CCC(=O)NC1=O)C2=O (stereo not drawn) [Lenalidomide (CC-5013)] | 1.74 | 1.57 | 1.91 | –
O=C(c1cn(Cc2cncn2Cc2ccc(Br)cc2)cc1-c1cccc2ccccc12)N1CCOCC1 [LB42708] | 0.31 | 0.46 | 0.16 | –
CCN(CC)CCCC(C)Nc1nc(C)cc(Nc2ccc3nc(C)cc(N)c3c2)n1 (stereo not drawn) [NSC 23766] | 0.82 | 0.62 | 1.01 | –
C[C@](O)(COc1ccc(C#N)cc1)C(=O)Nc1ccc(C#N)c(C(F)(F)F)c1 [MK-2866 (GTx-024)] | 0.64 | 0.72 | 0.56 | –
CS(=O)(=O)N1CCN(Cc2cc3nc(-c4cccc5[nH]ncc45)nc(N4CCOCC4)c3s2)CC1 [GDC-0941] | 0.92 | 0.75 | 1.09 | –

SMILES | Average LMP1 Fold Increase [4] | Replicate 1-LMP1 Fold Increase [5] | Replicate 2-LMP1 Fold Increase [5] | also measured
CCn1c2ccccc2c2cc(Nc3ccnc(NCCCN4CCOCC4)n3)ccc21 [EHop-016] | 1.06 | 0.70 | 1.43 | –
CCOc1ccccc1-n1c(C(C)N2CCN(C(=O)COc3ccc(Cl)cc3)CC2)nc2ccccc2c1=O (stereo not drawn) [Erastin] | – | – | – | fold induction at 2.5 µM [1]: 0.73; fold induction at 2.5 µM [2]: 0.7; fold induction at 2.5 µM [3]: 0.75
N#Cc1ccc(C(c2ccc(C#N)cc2)n2cncn2)cc1 [Letrozole] | – | – | – | fold induction at 2.5 µM [1]: 1.05; fold induction at 2.5 µM [2]: 0.66; fold induction at 2.5 µM [3]: 1.44
Cl.Cl.Cl.O[C@@H](COc1cccc2ncccc12)CN1CCN([C@@H]2c3ccccc3[C@@H]3[C@H](c4ccccc42)C3(F)F)CC1 [Zosuquidar (LY335979) 3HCl] | – | – | – | Average LMP1 Fold Increase [9]: 0.79 fold; Replicate 1-LMP1 Fold Increase [10]: 0.64 fold; Replicate 2-LMP1 Fold Increase [11]: 0.94 fold
O=C1NC(=O)/C(=C/c2ccc(-c3ccc(F)cc3O)o2)S1 [AS-252424] | 0.53 | 0.57 | 0.49 | –
Nc1nc(N)c2nc(-c3cccc(O)c3)c(-c3cccc(O)c3)nc2n1 [TG100-115] | – | – | – | Average LMP1 Fold Increase [9]: 0.53 fold; Replicate 1-LMP1 Fold Increase [10]: 0.33 fold; Replicate 2-LMP1 Fold Increase [11]: 0.73 fold
CC(C)CCNC(=O)[C@H](CC(C)C)NC(=O)[C@H]1O[C@@H]1C(=O)O [Loxistatin Acid (E-64C)] | 0.55 | 0.62 | 0.48 | –
CCOC(=O)CCNc1cc(N2CCc3ccccc3CC2)nc(-c2ccccn2)n1.Cl [GSK J4 HCl] | 32.34 | 48.53 | 16.15 | –
O=C1CC(=O)c2c(Cl)c(Cl)c(Cl)c(Cl)c21 [TCID] | – | – | – | Average LMP1 Fold Increase [9]: 0.52 fold; Replicate 1-LMP1 Fold Increase [10]: 0.66 fold; Replicate 2-LMP1 Fold Increase [11]: 0.38 fold
Cc1c(Cc2ccc3ccccc3n2)c2cc(F)ccc2n1CC(=O)O [OC000459] | – | – | – | fold induction at 2.5 µM [1]: 0.56; fold induction at 2.5 µM [2]: 0.64; fold induction at 2.5 µM [3]: 0.48
NC(=O)Nc1sc(-c2ccc(F)cc2)cc1C(N)=O [TPCA-1] | – | – | – | Average LMP1 Fold Increase [9]: 0.48 fold; Replicate 1-LMP1 Fold Increase [10]: 0.59 fold; Replicate 2-LMP1 Fold Increase [11]: 0.36 fold
Cc1cc([C@@H](C)Nc2ccccc2C(=O)O)c2nc(N3CCOCC3)cc(=O)n2c1 [AZD6482] | 0.22 | 0.06 | 0.37 | –
Cl.Cl.NC1(c2ccc(-c3nc4ccn5c(=O)[nH]nc5c4cc3-c3ccccc3)cc2)CCC1 [MK-2206 2HCl] | 0.51 | 0.44 | 0.59 | –
COc1ccc(C(=O)Nc2sc3c(c2C(N)=O)CCCC3)cc1OC [TCS 359] | – | – | – | Average LMP1 Fold Increase [9]: 0.40 fold; Replicate 1-LMP1 Fold Increase [10]: 0.62 fold; Replicate 2-LMP1 Fold Increase [11]: 0.19 fold
Oc1ccc2ccccc2c1SSc1c(O)ccc2ccccc12 [IPA-3] | 0.27 | 0.21 | 0.33 | –
NC(=O)C1CCCc2c1[nH]c1ccc(Cl)cc21 (stereo not drawn) [EX 527 (Selisistat)] | 0.81 | 0.24 | 1.38 | –
CCOC(=O)N1c2ccc(C(F)(F)F)cc2[C@@H](N(Cc2cc(C(F)(F)F)cc(C(F)(F)F)c2)C(=O)OC)C[C@H]1CC [Torcetrapib] | – | – | – | fold induction at 2.5 µM [6]: 0.5; fold induction at 2.5 µM [7]: 0.4; fold induction at 2.5 µM [8]: 0.6
CN1CCC(CNc2ccc3ncc(-c4cccc(OC(F)(F)F)c4)n3n2)CC1 [SGI-1776 free base] | 1.26 | 1.94 | 0.57 | –
COCCOc1ccc2c(c1)ncn2-c1ccc2cccc(N3CCC(N)CC3)c2n1 [CP-673451] | – | – | – | fold induction at 2.5 µM [1]: 0.49; fold induction at 2.5 µM [2]: 0.52; fold induction at 2.5 µM [3]: 0.45
C[C@H](CS)C(=O)N1CCC[C@H]1C(=O)O [Captopril] | – | – | – | fold induction at 2.5 µM [1]: 0.62; fold induction at 2.5 µM [2]: 0.71; fold induction at 2.5 µM [3]: 0.52
CCO[C@@H]1OC(=O)C[C@@H]1NC(=O)[C@@H]1CCCN1C(=O)[C@@H](NC(=O)c1ccc(N)c(Cl)c1)C(C)(C)C [VX-765] | – | – | – | fold induction at 2.5 µM [6]: 0.41; fold induction at 2.5 µM [7]: 0.45; fold induction at 2.5 µM [8]: 0.37
